Data: patent publication US10787436B2, “Inhibitors of cyclin-dependent kinase 7 (CDK7)” (Dana-Farber Cancer Institute, Inc., priority 2012, dated 2020)
Read-outs that look alike come from different tables or passages of the source. One block for each compound: values may come before it.

What was measured:
MDA-MB231 = assay: Proliferation assay, CellTiter-Glo, 72 hour; format: cell-based; settings: read-out: Inhibition of proliferation, MDA-MB231
MNNG-HOS Cl#5 = assay: Proliferation assay, CellTiter-Glo, 72 hour; format: cell-based; settings: osteosarcoma cell line, read-out: Inhibition of proliferation, MNNG-HOS Cl#5
RNAP II occupancy = assay: RNAP II ChIP-seq in Jurkat cells; format: cell-based, human; settings: 250 nM for 6 hours
Experimental: After the indicated treatment time, cells were crosslinked for 10 minutes at room temperature by the addition of one-tenth of the volume of 11% formaldehyde solution (11% formaldehyde, 50 mM Hepes (pH 7.3), 100 mM NaCl, 1 mM EDTA (pH 8.0), 0.5 mM EGTA (pH 8.0)) to the growth media followed by two washes with PBS. Following the final PBS wash, supernatant was aspirated, and the cell pellet was flash frozen in liquid nitrogen. Frozen crosslinked cells were stored at −80° C.
50 μl of Dynal magnetic beads (Sigma) were blocked with 0.5% BSA (w/v) in PBS. Magnetic beads were bound with 5 μg of the indicated antibody. Antibodies used are as follows: Total RNAP II (Rpb1 N-terminus): Santa Cruz sc-899; CDK7: Bethyl A300-405A. Crosslinked cells were lysed with lysis buffer 1 (50 mM Hepes (pH 7.3), 140 mM NaCl, 1 mM EDTA, 10% glycerol, 0.5% NP-40, and 0.25% Triton X-100) and washed with lysis buffer 2 (10 mM Tris-HCl (pH 8.0), 200 mM NaCl, 1 mM EDTA (pH 8.0) and 0.5 mM EGTA (pH 8.0)). […]
Illumina sequencing libraries were generated, and data were processed according to Lin et al., Cell (2012) 151:56-67. […] These criteria preserved only reads that mapped uniquely to the genome with 1 or fewer mismatches. […]

THP-1 = assay: Proliferation assay, CellTiter-Glo, 72 hour; format: cell-based; settings: read-out: Inhibition of proliferation, THP-1
RD-ES = assay: Proliferation assay, CellTiter-Glo, 72 hour; format: cell-based; settings: Ewing's sarcoma cell line, read-out: Inhibition of proliferation, RD-ES
HL60 = assay: Proliferation assay, CellTiter-Glo, 72 hour; format: cell-based; settings: read-out: Inhibition of proliferation, HL60
T47D = assay: Proliferation assay, CellTiter-Glo, 72 hour; format: cell-based; settings: breast cancer cell line, read-out: Inhibition of proliferation, T47D
RS4-11 = assay: Proliferation assay, CellTiter-Glo, 72 hour; format: cell-based; settings: read-out: Inhibition of proliferation, RS4-11
MV4-11 = assay: Proliferation assay, CellTiter-Glo, 72 hour; format: cell-based; settings: read-out: Inhibition of proliferation, MV4-11
143B = assay: Proliferation assay, CellTiter-Glo, 72 hour; format: cell-based; settings: osteosarcoma cell line, read-out: Inhibition of proliferation, 143B
SAOS = assay: Proliferation assay, CellTiter-Glo, 72 hour; format: cell-based; settings: osteosarcoma cell line, read-out: Inhibition of proliferation, SAOS
MCF10A = assay: Proliferation assay, CellTiter-Glo, 72 hour; format: cell-based; settings: non-tumorigenic breast epithelial cell line, read-out: Inhibition of proliferation, MCF10A
Hs863T = assay: Proliferation assay, CellTiter-Glo, 72 hour; format: cell-based; settings: Ewing's sarcoma cell line, read-out: Inhibition of proliferation, Hs863T
[1] = test system: patient-derived chronic lymphocytic leukemia (CLL) isolates; assay: Cell death of patient-derived CLL isolates, Annexin V staining, 24 hour; format: cell-based, human; settings: Homo sapiens, read-out: Pro-death signaling, average EC50 values
Experimental: Clinical isolates of CLL were cultured with compounds of Formula (I) or flavopiridol and assessed for cell death after a 24 hour time course by Annexin V staining. […] Anti-proliferative effect was measured using cell titer glo analysis.
PBMCs freshly isolated from peripheral blood are seeded in 24 well plates at a volume of 0.5 ml and a concentration of 2×10^6 cells/ml. Compounds and controls are added to respective wells in a total volume of 2.5 μl. Plates are mixed gently and incubated approximately 24 hours at 37° C., 5% CO2. Apoptosis was measured in all cells from each well using the Annexin V: FITC Apoptosis Detection Kit I (BD Biosciences). Normalized % death was calculated as follows: [(% Dead Drug−% Dead DMSO)/(100%−% Dead DMSO)]×100

Hs822T = assay: Proliferation assay, CellTiter-Glo, 72 hour; format: cell-based; settings: Ewing's sarcoma cell line, read-out: Inhibition of proliferation, Hs822T
SKBR3 = assay: Proliferation assay, CellTiter-Glo, 72 hour; format: cell-based; settings: read-out: Inhibition of proliferation, SKBR3
SK-ES = assay: Proliferation assay, CellTiter-Glo, 72 hour; format: cell-based; settings: Ewing's sarcoma cell line, read-out: Inhibition of proliferation, SK-ES
MCF7 = assay: Proliferation assay, CellTiter-Glo, 72 hour; format: cell-based; settings: read-out: Inhibition of proliferation, MCF7
A673 = assay: Proliferation assay, CellTiter-Glo, 72 hour; format: cell-based; settings: read-out: Inhibition of proliferation, A673
hTERT-HME1 = assay: Proliferation assay, CellTiter-Glo, 72 hour; format: cell-based; settings: read-out: Inhibition of proliferation, hTERT-HME1
IRAK1 = IRAK1 (Homo sapiens (Human), UniProt P51617); assay: Life Technologies Adapta kinase assay, IRAK1; format: biochemical; settings: superscript b (footnote not given; tested at 100 nM and 1 μM)
MLK3 = MLK3 (Homo sapiens (Human), UniProt Q16584); assay: Life Technologies LanthaScreen Eu kinase assay, MLK3; format: binding; settings: for Percent inhibition, MLK3^b: superscript b (footnote not given; tested at 100 nM and 1 μM)
CDK7 = CDK7 (Homo sapiens (Human), UniProt P50613); assay: In vitro inhibitory activity against CDK7 (Table 1); format: biochemical
Experimental: In vitro kinase assays with immunoprecipitated proteins (or recombinant CAK complexes) were performed as follows. Kinase reactions were performed in 25 μL of final volume of reaction buffer (50 mM Hepes, pH 7.5, 150 mM NaCl, 10 mM MgCl2, 5% glycerol, 25 μM ATP, and 10 μCi of [γ-32P]ATP). Each reaction contained 1 μg of RNAP II. Incubation was at 30° C. for 30-45 min. Reactions were terminated by addition of 5 μL of 5×SDS-PAGE sample buffer and incubated at 95° C. for 5 min. Reactions were analyzed by SDS-PAGE, and the dried gel was exposed to film or PhosphorImager plate.

Jurkat = Jurkat (proliferation, CellTiter-Glo); format: cell-based; settings: Homo sapiens, Jurkat; read-out: Calculated IC50, Jurkat
[2] = Homo sapiens, MDA-MB-231, breast cancer cell line
[3] = Homo sapiens, THP-1, blood cancer cell line
[4] = Homo sapiens, HL-60, blood cancer cell line
[5] = Homo sapiens, RS4-11, blood cancer cell line
[6] = Homo sapiens, MV4-11, blood cancer cell line
[7] = Homo sapiens, SK-BR-3, breast cancer cell line
[8] = Homo sapiens, MCF7, breast cancer cell line
[9] = Homo sapiens, A673, Ewing's sarcoma cell line
[10] = hTERT-HME1, immortalized normal mammary epithelial cell line

Chain of MLK3 (Q16584 whole entry): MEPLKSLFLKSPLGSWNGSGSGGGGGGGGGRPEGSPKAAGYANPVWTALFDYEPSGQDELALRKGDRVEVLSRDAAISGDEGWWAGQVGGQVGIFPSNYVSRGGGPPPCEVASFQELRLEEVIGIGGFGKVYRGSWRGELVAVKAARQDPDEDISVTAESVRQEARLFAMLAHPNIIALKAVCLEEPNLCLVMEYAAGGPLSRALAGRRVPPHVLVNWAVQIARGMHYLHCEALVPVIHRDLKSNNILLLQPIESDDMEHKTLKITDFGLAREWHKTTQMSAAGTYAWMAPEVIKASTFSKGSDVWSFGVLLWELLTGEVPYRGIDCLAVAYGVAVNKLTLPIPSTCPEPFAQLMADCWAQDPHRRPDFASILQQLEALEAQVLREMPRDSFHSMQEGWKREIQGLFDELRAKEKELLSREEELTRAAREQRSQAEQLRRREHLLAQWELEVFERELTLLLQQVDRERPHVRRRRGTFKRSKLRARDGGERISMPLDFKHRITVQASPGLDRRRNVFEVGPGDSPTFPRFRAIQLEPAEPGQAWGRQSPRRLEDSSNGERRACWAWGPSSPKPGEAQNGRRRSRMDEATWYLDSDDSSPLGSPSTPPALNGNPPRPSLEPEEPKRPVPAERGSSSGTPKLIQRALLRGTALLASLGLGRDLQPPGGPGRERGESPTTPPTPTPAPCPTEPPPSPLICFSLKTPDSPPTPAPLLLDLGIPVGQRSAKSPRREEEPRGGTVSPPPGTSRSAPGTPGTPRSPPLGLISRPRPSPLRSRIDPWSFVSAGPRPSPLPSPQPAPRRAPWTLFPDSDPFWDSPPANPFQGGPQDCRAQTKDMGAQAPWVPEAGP
Chain of IRAK1 (P51617 whole entry): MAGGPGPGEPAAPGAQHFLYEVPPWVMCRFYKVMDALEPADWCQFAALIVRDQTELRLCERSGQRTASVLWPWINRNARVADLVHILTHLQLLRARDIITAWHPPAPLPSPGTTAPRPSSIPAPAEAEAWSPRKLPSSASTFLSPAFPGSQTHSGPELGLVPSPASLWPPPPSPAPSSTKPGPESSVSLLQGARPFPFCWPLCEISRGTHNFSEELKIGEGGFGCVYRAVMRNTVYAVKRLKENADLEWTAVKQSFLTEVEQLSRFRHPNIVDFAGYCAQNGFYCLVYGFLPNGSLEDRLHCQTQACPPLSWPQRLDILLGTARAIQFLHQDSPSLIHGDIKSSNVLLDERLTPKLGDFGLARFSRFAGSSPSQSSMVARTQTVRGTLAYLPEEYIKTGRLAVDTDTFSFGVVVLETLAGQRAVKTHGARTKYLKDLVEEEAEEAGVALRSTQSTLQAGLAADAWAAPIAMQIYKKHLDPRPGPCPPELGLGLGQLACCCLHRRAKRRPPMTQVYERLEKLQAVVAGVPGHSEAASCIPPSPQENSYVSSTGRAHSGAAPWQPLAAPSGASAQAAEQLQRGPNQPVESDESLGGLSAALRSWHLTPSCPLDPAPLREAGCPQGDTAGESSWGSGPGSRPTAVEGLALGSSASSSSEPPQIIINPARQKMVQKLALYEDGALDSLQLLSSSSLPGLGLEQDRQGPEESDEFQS
Chain of CDK7 (P50613 whole entry, looked up): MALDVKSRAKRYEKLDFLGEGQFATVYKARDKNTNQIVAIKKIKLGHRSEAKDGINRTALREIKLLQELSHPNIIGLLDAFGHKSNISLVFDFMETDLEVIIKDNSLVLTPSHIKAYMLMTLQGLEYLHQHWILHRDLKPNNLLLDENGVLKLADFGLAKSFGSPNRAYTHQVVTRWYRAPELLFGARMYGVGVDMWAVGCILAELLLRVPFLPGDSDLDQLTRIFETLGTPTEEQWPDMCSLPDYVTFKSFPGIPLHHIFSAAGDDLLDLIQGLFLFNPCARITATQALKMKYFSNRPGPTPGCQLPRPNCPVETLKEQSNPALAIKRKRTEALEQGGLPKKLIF
Chain of CDK7 (P51946 whole entry partner, looked up): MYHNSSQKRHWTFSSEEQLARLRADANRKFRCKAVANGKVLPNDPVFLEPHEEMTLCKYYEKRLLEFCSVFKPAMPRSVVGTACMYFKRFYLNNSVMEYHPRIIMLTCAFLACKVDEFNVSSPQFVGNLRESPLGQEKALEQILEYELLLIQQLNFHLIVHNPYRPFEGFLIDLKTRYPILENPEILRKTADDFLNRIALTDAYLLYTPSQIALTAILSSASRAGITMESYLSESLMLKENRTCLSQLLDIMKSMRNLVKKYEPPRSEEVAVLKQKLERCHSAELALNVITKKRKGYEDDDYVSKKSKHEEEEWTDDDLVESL
Chain of CDK7 (P51948 whole entry partner, looked up): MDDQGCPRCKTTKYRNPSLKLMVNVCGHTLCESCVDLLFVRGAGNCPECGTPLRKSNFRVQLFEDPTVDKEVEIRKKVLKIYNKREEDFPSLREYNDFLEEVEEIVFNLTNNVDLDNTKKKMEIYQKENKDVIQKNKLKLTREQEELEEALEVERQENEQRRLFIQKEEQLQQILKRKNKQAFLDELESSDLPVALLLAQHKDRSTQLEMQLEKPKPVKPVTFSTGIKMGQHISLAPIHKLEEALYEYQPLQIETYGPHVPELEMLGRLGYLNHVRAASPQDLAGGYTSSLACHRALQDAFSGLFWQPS

Structure (SMILES): CN1CC[C@H](c2c(O)cc(O)c3c(=O)cc(-c4ccccc4Cl)oc23)[C@H](O)C1 [Flavopiridol, flavopiridol, reference compound]
- IC50 (MDA-MB231; [2]): < 500 nM
- IC50 (MNNG-HOS Cl#5): 500 to 5000 nM
- RNAP II occupancy at the promoter proximal pause site (RNAP II occupancy): unaffected
- IC50 (THP-1; [3]): < 500 nM
- IC50 (RD-ES; RD-ES): < 500 nM
- IC50 (HL60; [4]): < 500 nM
- IC50 (T47D; Homo sapiens, T47D): > 5000 nM
- IC50 (RS4-11; [5]): < 500 nM
- IC50 (MV4-11; [6]): < 500 nM
- IC50 (143B; Homo sapiens, 143B): 500 to 5000 nM
- IC50 (SAOS): < 500 nM
- IC50 (MCF10A; Homo sapiens, MCF-10A): < 500 nM
- IC50 (Hs863T): > 5000 nM
- EC50 [1]: < 200 nM
- IC50 (Hs822T): > 5000 nM
- IC50 (SKBR3; [7]): < 500 nM
- IC50 (SK-ES): < 500 nM
- IC50 (MCF7; [8]): 500 to 5000 nM
- IC50 (A673; [9]): < 500 nM
- IC50 (hTERT-HME1; [10]): < 500 nM

Structure (SMILES): CN(C)C/C=C/C(=O)Nc1ccc(S(=O)(=O)Nc2cccc(Nc3ncc(C#N)c(-c4c[nH]c5ccccc45)n3)c2)cc1 [Formula I-55, (E)-N-(4-(N-(3-(5-cyano-4-(1H-indol-3-yl)pyrimidin-2-ylamino)phenyl)sulfamoyl)phenyl)-4-(dimethylamino)but-2-enamide]
- IC50 (Jurkat): 100 to 1000 nM

Structure (SMILES): CN(C)C/C=C/C(=O)Nc1ccc(C(=O)N(C)c2cccc(Nc3ncc(Cl)c(-c4c[nH]c5ccccc45)n3)c2)cc1 [Formula I-57, (E)-N-(3-(5-chloro-4-(1H-indol-3-yl)pyrimidin-2-ylamino)phenyl)-4-(4-(dimethylamino)but-2-enamido)-N-methylbenzamide]
- Percent inhibition, IRAK1^b (IRAK1): C (less than 50% inhibition)
- Percent inhibition, MLK3^b (MLK3): C (less than 50% inhibition)
- IC50 (Jurkat): ≥ 1000 nM

Structure (SMILES): CC(C)[C@]12O[C@H]1[C@@H]1O[C@]13[C@]1(O[C@H]1C[C@H]1C4=C(CC[C@@]13C)C(=O)OC4)[C@@H]2O [Triptolide, triptolide, reference compound]
- IC50 (MDA-MB231; [2]): < 500 nM
- IC50 (MNNG-HOS Cl#5): < 500 nM
- IC50 (THP-1; [3]): < 500 nM
- IC50 (RD-ES; RD-ES): < 500 nM
- IC50 (HL60; [4]): < 500 nM
- IC50 (T47D; Homo sapiens, T47D): > 5000 nM
- IC50 (RS4-11; [5]): < 500 nM
- IC50 (MV4-11; [6]): < 500 nM
- IC50 (143B; Homo sapiens, 143B): < 500 nM
- IC50 (SAOS): < 500 nM
- IC50 (MCF10A; Homo sapiens, MCF-10A): < 500 nM
- IC50 (Hs863T): > 5000 nM
- IC50 (Hs822T): 500 to 5000 nM
- IC50 (SKBR3; [7]): < 500 nM
- IC50 (SK-ES): < 500 nM
- IC50 (MCF7; [8]): < 500 nM
- IC50 (A673; [9]): < 500 nM
- IC50 (hTERT-HME1; [10]): < 500 nM

More lines, main results first:

- IC50 (MDA-MB231; breast cancer cell line): < 500 nM
- IC50 (THP-1; blood cancer cell line): < 500 nM
- IC50 (HL60; blood cancer cell line): < 500 nM
- Percent inhibition, IRAK1^b (IRAK1): C (less than 50% inhibition)
- IC50 (T47D): 500 to 5000 nM
- IC50 (RS4-11; blood cancer cell line): < 500 nM
- IC50 (MV4-11; blood cancer cell line): < 500 nM
- IC50 (MLK3; read-out: Calculated IC50, MLK3): < 100 nM
- Percent inhibition, MLK3^b (MLK3): C (less than 50% inhibition)
- IC50 (SKBR3; breast cancer cell line): 500 to 5000 nM
- IC50 (SK-ES): < 500 nM
- IC50 (MCF7; breast cancer cell line): < 500 nM
- IC50 (CDK7): 20.9 nM
Structure (SMILES): Cc1ccc(Nc2ncc(C)c(-c3c[nH]c4ccccc34)n2)cc1NC(=O)c1ccc(NC(=O)/C=C/CN(C)C)cc1 [Formula I-20]
- IC50 (MNNG-HOS Cl#5): 500 to 5000 nM
- IC50 (RD-ES): < 500 nM
- IC50 (143B): > 5000 nM
- IC50 (SAOS): < 500 nM
- IC50 (MCF10A): < 500 nM
- IC50 (Hs863T): < 500 nM
- IC50 (Hs822T): < 500 nM
- IC50 (A673; Ewing's sarcoma cell line): < 500 nM
- IC50 (hTERT-HME1; immortalized normal mammary epithelial cell line): < 500 nM

- IC50 (Jurkat): 100 to 1000 nM
Structure (SMILES): CN(C)C/C=C/C(=O)Nc1ccc(S(=O)(=O)Nc2cccc(Nc3ncc(Cl)c(-c4c[nH]c5ccccc45)n3)c2)cc1 [Formula I-52, (E)-N-(4-(N-(3-(5-chloro-4-(1H-indol-3-yl)pyrimidin-2-ylamino)phenyl)sulfamoyl)phenyl)-4-(dimethylamino)but-2-enamide]

- Percent inhibition, IRAK1^b (IRAK1): C (less than 50% inhibition)
- Percent inhibition, MLK3^b (MLK3): C (less than 50% inhibition)
- IC50 (Jurkat): < 100 nM
Structure (SMILES): Cc1ccc(Nc2ncc(C#N)c(-c3c[nH]c4ccccc34)n2)cc1NC(=O)c1ccc(NC(=O)/C=C/CN(C)C)cc1 [Formula I-56, (E)-N-(5-(5-cyano-4-(1H-indol-3-yl)pyrimidin-2-ylamino)-2-methylphenyl)-4-(4-(dimethylamino)but-2-enamido)benzamide]
